The source of these data is patent US20200129435A1, “COMPOSITION FOR DELIVERING A THERAPEUTIC AGENT AND METHODS FOR MAKING AND USING” (UVic Industry Partnerships Inc., priority 2018, published 2020).

By viability is commonly meant a read-out of living cells in per cent, often relative to untreated cells.

Read-outs that look alike come from different tables or passages of the source.

Data set [1] has as its system U-87 MG cells. Kind of data set: Cell count assay (hemocytometer, Trypan Blue). As to conditions: 40 μM ATRA in cell medium. It counts as cell-based, human. On the procedure:
U-87 MG cells were provided by ATCC® and cultured in Dulbecco's Modified Eagle Medium (DMEM), high glucose (Gibco™ by Life Technologies™, Carlsbad, USA, Catalog No.: 11965084) with 10% fetal bovine serum (Gibco™ by Life Technologies™, Carlsbad, USA, Catalog No.: 12483020), 1% penicillin-streptomycin (Invitrogen/Life Technologies™, Carlsbad, USA, Catalog No.: 15140122), and 4 μg/ml puromycin at 37° C. in an atmosphere of 5% CO2. Cells were counted by hemocytometer (Bright-Line™) with two-time dilution in Trypan Blue solution (Sigma-Aldrich, St Louis, USA, Catalog No.:93595).

Data set [2] has as its system U-87 MG cells. Description: PrestoBlue cell viability assay (Example 1). The class given is cell-based, human. As to the method:
Cell viability was assessed by PrestoBlue™ (Invitrogen/Life Technologies™, Carlsbad, USA, Catalog No.: A13262) assay. In this experiment, cells were first seeded in 6-well plates in a density of 6×10^4 cells/well. Viability tests were conducted at 48, 72, and 96 hours by replacing the cell media with 10% PrestoBlu™ reagent and incubating at 37° C. for 1 hour. Following, 100 μl of the incubated 10% PrestoBlue™ reagent from each well of the assay plates was transferred to a new well in a 96-well plate and read by a microplate reader (Infinite M200 Pro). Finally, viability was calculated by the following equation: […]

Data set [3] concerns U-87 MG cells. Kind of data set: Apoptosis assay, propidium iodide flow cytometry, sub-G1 population. The note with it: free ATRA 40 μM; 48 hours. The class given is cell-based, human.
Method: To determine the level of apoptosis induced by ATRA apoptosis levels were detected using propidium iodide (PI) lysis buffer and flow cytometry. […] 1% sodium citrate (Bio Basic, Markham, Canada, Catalog No.: CB0035) and 0.1% Triton X-100 (Sigma-Aldrich, Sigma-Aldrich, St. Louis, USA Catalog No.: X100) were added to distilled water to prepare an initial solution for PI lysis buffer. The pH of the solution was adjusted to 7.4 and stored.
Prior to the apoptosis assay, RNase (Sigma-Aldrich, St. Louis, USA Catalog No.: R6513) and propidium iodide (Sigma-Aldrich, St. Louis, USA Catalog No.: P4864) was added to the initial solution to reach concentrations of 0.5 mg/ml and 40 μg/ml for RNase and propidium iodide, respectively. The cell media was collected and the cells were detached with EDTA (Caledon Laboratory Chemicals, Georgetown, Canada, Catalog No.: 3460-1-65) solution. The cell suspension was centrifuged at 4° C. in 1500 g for 5 minutes. Following, the cell pellets were washed twice with 500 μl of DPBS (Gibco™ by Life Technologies™, Carlsbad, USA, Catalog No.: 14190250) 4° C. The pellets were then lysed and stained with 250 μl of PI lysis buffer, and kept at room temperature in the dark for 15-30 minutes. […] Finally, the red channel was read on the flow cytometer to determine the sub-G1 population.
In data set [4] the test system is U-87 MG cells. Description: Bright field microscopy of treated cells. It counts as cell-based, human. As to conditions: free ATRA = 40 μM.
The conditions of data set [5]: oral administration is the main route; cited from earlier work.
For data set [6], the system named is U87 glioblastoma cells. Kind of data set: PrestoBlue cell viability assay (Example 2). The class given is cell-based. As to conditions: Homo sapiens, 96-hours treatment, read-out: reduction of cell viability. As to the method: PrestoBlue™ cell viability assay was used to determine the effect of TMZ on the viability and proliferation of U87 glioblastoma cells. In this assay, metabolically active cells reduce a non-fluorescent compound (resazurin) in the PrestoBlue™ solution into a fluorescent molecule (resorufin).
In this study, U87 glioblastoma cells were seeded in a 96 well plate at 5,000 cells per well density, and a 24 well plate at 25,000 cells per well density to evaluate the cytotoxicity of free TMZ and one embodiment of the disclosed composition, respectively. The wells were then incubated for 24 hours at 37° C. with 95% relative humidity and 5% CO2. To determine the effect of the free TMZ, U87 glioblastoma cells were treated with different concentrations of the drug from 100 μM to 1000 μM in the cell medium. To study the effect of the disclosed hydrogel composition, the cells were treated with both microsphere-loaded (TMZ concentration of 100 μM) and blank meshes. Cells were incubated for 24, 48, 72, and 96 hours without changing the cell culture medium. […] Subsequently, the cell culture medium containing presto blue was transferred into a new well plate and the fluorescent intensity of each well was measured at excitation wavelength of 535 nm and emission wavelength of 615 nm by using a plate reader. Cell viability was then calculated by using equation 4 (Eq. 4): […]

For the compound `CC1=C(/C=C/C(C)=C/C=C/C(C)=C/C(=O)O)C(C)(C)CCC1` [ATRA, all-trans retinoic acid], the “cell population relative to control condition” value is given as 86.0%±7.2% in data set [1] (48 hours) and 64.4%±8.6% in data set [1] (96 hours). Further, the “cell viability compared to control” value is on record as 77% in data set [2] (20 μM in cell medium, 96 hours) and 72% in data set [2] (40 μM in cell medium, 96 hours). Also, the viability at 20 µM is 88.4% in data set [2] (Homo sapiens, U-87 MG, 48 h, 20 μM in cell medium, 48 hours, read-out: cell viability compared to control) and 77.3% in data set [2] (Homo sapiens, U-87 MG, 96 h, 20 μM in cell medium, 96 hours, read-out: cell viability compared to control). The viability at 40 µM in data set [2] (Homo sapiens, U-87 MG, 96 h, 40 μM in cell medium, 96 hours, read-out: cell viability compared to control) is 72.4%. In addition, the “apoptosis (sub-G1 population)” value in data set [3] is reported as “about 2%”. In data set [4], the cell morphology result is on record as “cell shrinkage”. Further, in data set [5], the half-life result was “about 1.5 hours”.
As for `Cn1nnc2c(C(N)=O)ncn2c1=O` [TMZ, Temozolomide], the cytotoxicity at 100 µM in data set [6] (free TMZ 100 μM) is 78%. Moreover, the cytotoxicity at 1000 µM in data set [6] (free TMZ 1000 μM) worked out at 95%.
